Reference: patent US7824661B2, “Technetium- and rhenium-bis(heteroaryl) complexes, and methods of use thereof” (priority 2002, dated 2010)

How the values were obtained:
[1] = Whole body biodistribution studies in rats; type: in vivo, Rats (Sprague Dawley, male)
Method: The animal care and use procedures were in accordance with the Guide for the Care and Use of Laboratory Animals and the Animal Welfare Act. The vertebrate animals in this research project were used to investigate the biodistribution and pharmacokinetics of the rotenone derivatives and determine uptake in the heart. Rats (Sprague Dawley, male, at 80-100 grams each) were used for the whole body biodistribution studies. The Tc-complexes, as well as Cardiolite™, were evaluated at three time points; 5, 30, and 120 minutes, with five animals per time point. In order to provide accurate statistics in the clearance rate measurements and to account for intra-species variation it was necessary to use this number of animals. The product was diluted to ˜10 μCi/100 μl using freshly prepared 10% ethanol/saline (0.9%) solution. The rats were injected via a lateral tail vein with a volume of 0.1 mL. The rats were sacrificed by decapitation, with immediate blood collection at the desired time points. Whole body biodistributions were performed on the animals immediately following decapitation, organ and tissue samples were taken and washed of excess blood, blotted dry and weighed. Radioactivity was assayed using automated Nal well counter. All tissue samples were counted together along with an aliquot of the injected dose so that % injected dose and % injected dose per gram of tissue could be calculated. […]

[2] = type: physicochemical
Method: The stability and robustness of the technetium-di(pyridine) complexes was assessed using challenges with free cysteine and histidine. Specifically, the experiments were performed using [^99mTc(CO)3(dipyridinemethylamine)]^+1.
This approach enables the creation of libraries containing the {M(CO)31}^1+ core. We have begun to define the biological fate of the ^99mTc-dipyridine complexes, allowing us to compare a series of future tridentate analogs. The dipyridine labeling proceeded in high yield and was stable to excess histidine and cysteine challenges for more than 18 hours. […] Activity decreased in all tissues as a function of time, except in the GI tract, which increased with time.
[^99mTc(CO)3(H2O)3]^+ was heated with [{N,N-di(pyridyl-2-methyl)}N-butyl-phthalimide in 0.5 mL (1 mg/mL) of methanol at 100° C. for 60 minutes. […] The product eluted with methanol at 20.8 minutes. The HPLC analysis was performed using a Supelco C18 column, 25 cm×4.6 mm column (5 μm pore size), equipped with 2 cm guard using solvent A=0.05 M triethylammonium phosphate buffer pH 2.5 and solvent B=methanol. The method employed was a gradient 5-95% B, 1 mL/minute for 30 minutes. The gradient ramped from 5-95 from 3-20 minutes.

stability and robustness in challenges with free cysteine and histidine [2]	change in the components by HPLC analysis ([2]; aqueous solution of the complex incubated with cysteine for 18 hours at 37° C. at pH 7.4)	Substance	blood clearance, % ID/g ([1]; at 5 minutes) [% ID/g]	blood clearance, % ID/g ([1]; by 30 minutes) [% ID/g]
		[^99mTc(CO)3(DpK)]	0.6	0.07
stable	no significant change	[^99mTc(CO)3(dipyridinemethylamine)]^+1		
